In data set [1] the test system is subjects with MDD at imminent risk for suicide. The data set is described as follows: SIBAT clinical global judgment of suicide risk, […]2001. It counts as in vivo, human. As to conditions: Baseline(DB), predose Day 1; ITT analysis set. An excerpt:
The clinical global judgment of suicide risk (Module 8) summarizes clinician overall judgment of suicide risk as derived from information gathered from the full SIBAT tool. It operates like numerous other CGI-severity scales that have been used in other psychiatric studies. Change in the clinical global judgment of suicide risk is designed to directly identify clinical meaningful changes in suicidal ideation and to permit classification of suicide risk.
The analysis of the change in SIBAT score was based on an ANCOVA model on ranks of change in SIBAT with treatment, antidepressant therapy, and analysis center as factors, and baseline value (unranked) as a covariate. There was a significant difference (two-sided […]) between the two treatment groups when comparing the mean rank of change from baseline at Day 1: 4-hours postdose in favor of esketamine 84 mg See, Table 58. See, FIG. 39. […] This difference was not evident at the Day 25 DB endpoint. See, FIG. 40, which is based on LOCF data and analyzed using Cochran-Mantel-Haenszel test controlling for analysis center and antidepressant therapy.

Data set [2] shares this test system. In kind it is in vivo, human. As to conditions: esketamine 84 mg; safety analysis set. The procedure:
Of the 68 subjects in the all randomized analysis set, 19 (27.9%) subjects discontinued from the double-blind phase. More subjects in the esketamine 84 mg group discontinued due to adverse events (5 subjects in the esketamine 84 mg group versus 1 subject in the placebo group) whereas more subjects in the placebo group discontinued due to lack of efficacy (4 subjects in the placebo group versus 1 subject in the esketamine 84 mg group).
More subjects in the esketamine 84 mg group than in the placebo group had all 8 dosing sessions (74.3% vs. 64.5%). Five subjects reduced their dose of esketamine from 84 mg to 56 mg. Of these, 3 reduced their dose due to an adverse event and 2 had their dose reduced in error and were considered major protocol deviations.

The text on data set [3]:
This example provides an LC-MS/MS method for the determination of ketamine and norketamine in sodium heparin human plasma using ketamine-d4 and norketamine-d4 as the respective internal standards (IS).

The subject of data set [4] is patients with treatment-resistant depression (TRD). The experiment in a line: BPRS positive symptom subscale, Example 7. Details: species or system human. As to conditions: in vivo. As to the method:
Adverse events were monitored throughout the study. Other safety assessments (i.e., laboratory tests, vital signs, physical examination) were performed at pre-specified time points. Vital signs, the Clinician Administered Dissociative States Scale (CADSS; Bremner, “Measurement of dissociative states with the clinician-administered dissociative states scale (CADSS)”, J. Traumatic Stress, 1998, 11(1):125-136), and the 4-item positive symptom subscale from the Brief Psychiatric Rating Scale (BPRS; Overall, “The Brief Psychiatric Rating Scale. Psychological Reports”, 1962, 10:799-812) were assessed pre-dose, at 40 minutes, and 2 hours post-dose.

Data set [5] has as its system elderly subjects with TRD. In kind it is in vivo, human. The following applies: each dosing day. The text has this: The Modified Observer's Assessment of Alertness/Sedation (MOAA/S) was used to measure treatment-emergent sedation with correlation to levels of sedation defined by the American Society of Anesthesiologists (ASA) continuum. The MOAA/S scores range from 0 (No response to painful stimulus; corresponds to ASA continuum for general anesthesia) to 5 (Readily responds to name spoken in normal tone [awake]; corresponds to ASA continuum for minimal sedation). The proportion of subjects with sedation was <4% for the esketamine group for each dosing day.

Data set [6] concerns subjects with TRD. Details: species or system human. The following applies: in vivo. An excerpt: Subjects with and without hypertension experienced similar magnitude of mean increases of SBP and DBP.
The maximum mean increases (across all dosing days within the respective phase) in diastolic BP were 5.6 and 5.2 in the IND and OP/MA phases, respectively.

Data set [7] concerns patients with treatment-resistant depression (TRD). The data set is described as follows: Response, remission and relapse rates (MADRS), Example 7. The following applies: Period 2 endpoint. It counts as in vivo, human. The text has this:
A similar trend for remission (defined as MADRS total score≤10) was observed across groups. […] Response and remission rates at the end of the open-label and follow-up phases are presented by type of treatment in the double-blind and open-label phases in Table 161.

Data set [8] deals with subjects with TRD. The following applies: human, in vivo, other: intranasal.
Protocol: The Clinician Administered Dissociative States Scale (CADSS) was measured prior to the start of each dose, at 40 minutes, and 1.5 hours postdose.
The subject of data set [9] is subjects with MDD at imminent risk for suicide. The experiment in a line: MADRS suicide item, […]2001. In kind it is in vivo, human. The following applies: 84 mg, ITT Analysis Set. The text has this: • a. Changes from baseline to Day 2 and Day 25 for the MADRS total score • b. Changes from baseline to Day 1 4-hours postdose, Day 2 and Day 25 for the MADRS Suicide Item • c. Changes from baseline to Day 1 4-hours postdose, Day 2, and Day 25 for the clinical global judgment of suicide risk from the Suicide Ideation and Behavior Assessment Tool (SIBAT) • d. Sustained response (Onset of Clinical Response) defined as at least 50% reduction from baseline in MADRS total score with onset on Day 1 that is maintained through the end of the double-blind phase (Day 25) • e. Changes from baseline to Day 1 4-hours postdose, Day 2, and Day 25 for the Beck Scale for Suicidal Ideation (BSS) • f. Changes from baseline to Day 1 4-hours postdose and Day 25 for the Beck Hopelessness Scale
Results of the change from baseline over time for the suicide item from the MADRS assessment can be found in Attachment 1.

As to `CN[C@]1(c2ccccc2Cl)CCCCC1=O` [Esketamine 84 mg], in data set [1], the “SIBAT Clinical Global Judgment of Suicide Risk, Median (Range)” value is given as 6.0 (5; 6).

As for `CN[C@]1(c2ccccc2Cl)CCCCC1=O` [esketamine, (S)-2-(2-chlorophenyl)-2-(methylamino)cyclohexanone], the “Dose decreased during double-blind: No” value in [2] was 29 (82.9%). Moreover, the “Dose decreased during double-blind: Yes” value in [2] is recorded as 6 (17.1%). The “QC sample freeze/thaw stability” value in data set [3] (freeze (−20° C.)/thaw (room temperature)) is given as 3 freeze (−20° C.)/thaw (room temperature) cycles. Further, in data set [3] (human plasma, room temperature), the “QC sample bench-top stability” value was 18 hours at room temperature. Further, the “Symptoms suggestive of psychosis (BPRS-positive assessment)” value in [4] was “No participant manifested symptoms suggestive of psychosis”. Moreover, in data set [5], the “Proportion of subjects with sedation (post dose MOAA/S score of ≤3)” value is below 4%. For the same compound, the “Subjects who discontinued intranasal esketamine due to increased blood pressure” value with subjects with TRD [6] is “Six”. Further, the “Proportion of responders (≥50% improvement from baseline in MADRS total score)” value is reported as 36.4% in data set [7] (56 mg) and 50.0% in [7] (84 mg). Also, the “Time to resolution of dissociative and perceptual change symptoms (CADSS)” value in the data set on subjects with TRD [8] is reported as at most 1.5 hours postdose. The “MADRS Suicide Item (Suicidal Thoughts), Change from Baseline, Med” value in [9] (Day 1(DB): 4H LOCF) is −3.0; in [9] (Day 1(DB): 4H), −3.0; in data set [9] (Day 2(DB) LOCF), −3.0; in [9] (Day 2(DB)) it was −3.0; in data set [9] (Day 3(DB) LOCF) it was −4.0; in data set [9] (Day 3(DB)) it was −4.0. Besides, the “MADRS Suicide Item (Suicidal Thoughts), Change from Baseline, Med” value in [9] (Day 4(DB) LOCF), in data set [9] (Day 4(DB)), in [9] (Day 5(DB) LOCF), in data set [9] (Day 5(DB)), in data set [9] (Day 8(DB) LOCF) and in data set [9] (Day 8(DB)) was −4.0 throughout. Besides, the “MADRS Suicide Item (Suicidal Thoughts), Change from Baseline, Med” value in [9] (Day 11(DB) LOCF), in data set [9] (Day 11(DB)), in [9] (Day 15(DB) LOCF), in data set [9] (Day 15(DB)), in [9] (Day 18(DB) LOCF) and in data set [9] (Day 18(DB)) was −4.0 throughout. Also, the “MADRS Suicide Item (Suicidal Thoughts), Change from Baseline, Med” value was −4.0 in data set [9] (Day 22(DB) LOCF); −4.0 in data set [9] (Day 22(DB)); −4.5 in data set [9] (Day 25(DB): 4H); −4.0 in data set [9] (Day 25(DB): Predose LOCF); −4.5 in data set [9] (Day 25(DB): Predose); −4.0 in [9] (Day 32(FU) LOCF). Besides, the “MADRS Suicide Item (Suicidal Thoughts), Change from Baseline, Med” value in data set [9] (Day 32(FU)) was −4.0; in data set [9] (Day 39(FU) LOCF), −5.0; in [9] (Day 39(FU)), −5.0; in [9] (Day 46(FU) LOCF), −4.0; in data set [9] (Day 46(FU)), −4.0; in data set [9] (Day 53(FU) LOCF), −4.0. The “MADRS Suicide Item (Suicidal Thoughts), Change from Baseline, Med” value in [9] (Day 53(FU)) is recorded as −5.0; in [9] (Day 67(FU) LOCF) it was −4.0; in data set [9] (Day 67(FU)), −4.0; in [9] (Day 81(FU)) it was −5.0; in data set [9] (End Point(DB)) it was −4.0; in [9] (End Point(FU)), −5.0.

(Values after patent US11707440B2 (priority 2017, dated 2023).)
